Patent US9040516B2, “Uracil derivative and use thereof for medical purposes” (SUMITOMO DAINIPPON PHARMA CO., LTD., priority 2011, dated 2015)

Target: T1, human neutrophil elastase (Homo sapiens, UniProt P08246)
T1 construct: purchased Elastin Products Company
T1 sequence (P08246 30-267): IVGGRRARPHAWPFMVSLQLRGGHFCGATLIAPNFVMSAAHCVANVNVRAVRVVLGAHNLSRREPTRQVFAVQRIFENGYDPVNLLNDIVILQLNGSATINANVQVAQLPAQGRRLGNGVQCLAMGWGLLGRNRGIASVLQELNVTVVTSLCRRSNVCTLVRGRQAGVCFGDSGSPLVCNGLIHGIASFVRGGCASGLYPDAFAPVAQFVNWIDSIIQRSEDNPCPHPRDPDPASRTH
Assay: Inhibitory action against human neutrophil elastase (Test Example 1; fluorogenic substrate MeOSuc-AAPV-AMC, buffer with 2M NaCl, 0.002% Brij-35)
Assay type: biochemical
Conditions: 37° C., read-out: IC50 value (compound concentration required for 50% inhibition of human neutrophil elastase)
Protocol: Assay buffer (0.4 unit/ml HNE (human neutrophil elastase, available from Elastin Products Company), 200 mM HEPES [N-(2-hydroxyethyl)piperazine-N′-(2-ethanesulfonic acid)], pH 7.5, 2M NaCl, 0.002% Brij-35) 100 μl, water for injection 40 μl and DMSO (dimethyl sulfoxide) solution of the present compound 20 μl were mixed in a 96 well plate and the mixed solutions were pre-incubated at 37° C. for five minutes. After pre-incubation, MeOSuc-AAPV-AMC (methoxysuccinyl-alanyl-alanyl-prolyl-valyl-aminomethyl cumaride (available from Sigma Aldrich Co.) solution as fluorogenic substrate (which was dissolved in 10% DMSO solution so as to adjust to 0.5 mM) 40 μl was added to the above-prepared mixed solution so as to initiate the reaction, and the mixture was incubated at 37° C. for five minutes. The fluorescence intensity of AMC was measured at an excitation wavelength of 380 nm and a fluorescence wavelength of 460 nm and the inhibition ratio was determined.

Row | Molecule | IC50
1 | 2-[3,6-dimethyl-2,4-dioxo-1-(3-trifluoromethylphenyl)-1,2,3,4-tetrahydropyrimidin-5-yl]biphenyl-4-carbonitrile [Example 60] | 76 nM
2 | 5-[1-(-chlorophenyl)-1H-pyrazol-5-yl]-3,6-dimethyl-1-(3-trifluoromethylphenyl)pyrimidin-2,4(1H,3H)-dione [Example 21] | 252 nM
3 | CCOC(=O)Cn1c(=O)c(-c2ccnn2-c2ccc(C#N)cc2)c(C)n(-c2cccc(C(F)(F)F)c2)c1=O [Example 3] | 104 nM
4 | CCOC(=O)CCn1c(=O)c(-c2ccnn2-c2ccc(C#N)cc2)c(C)n(-c2cccc(C(F)(F)F)c2)c1=O [Example 4, 3-[5-[1-(4-cyanophenyl)-1H-pyrazol-5-yl]-4-methyl-2,6-dioxo-3-(3-trifluoromethylphenyl)-2,3-dihydropyrimidin-1(6H)-yl]propanoic acid ethyl ester] | 131 nM
5 | CCOC(=O)CCCn1c(=O)c(-c2ccnn2-c2ccc(C#N)cc2)c(C)n(-c2cccc(C(F)(F)F)c2)c1=O [Example 5, 4-[5-[1-(4-cyanophenyl)-1H-pyrazol-5-yl]-4-methyl-2,6-dioxo-3-(3-trifluoromethylphenyl)-2,3-dihydropyrimidin-1(6H)-yl]butanoic acid ethyl ester] | 170 nM
6 | Cc1c(-c2ccnn2-c2ccc(C#N)cc2)c(=O)n(CC(=O)OCc2ccccc2)c(=O)n1-c1cccc(C(F)(F)F)c1 [Example 6, 2-[5-[1-(4-cyanophenyl)-1H-pyrazol-5-yl]-4-methyl-2,6-dioxo-3-(3-trifluoromethylphenyl)-2,3-dihydropyrimidin-1(6H)-yl]acetic acid benzyl ester] | 123 nM
7 | COC(Cn1c(=O)c(-c2ccnn2-c2ccc(C#N)cc2)c(C)n(-c2cccc(C(F)(F)F)c2)c1=O)OC [Example 7, 4-[5-[3-(2,2-dimethoxyethyl)-6-methyl-2,4-dioxo-1-(3-trifluoromethylphenyl)-1,2,3,4-tetrahydropyrimidin-5-yl]-1H-pyrazol-1-yl]benzonitrile] | 120 nM
8 | Cc1c(-c2ccnn2-c2ccc(C#N)cc2)c(=O)n(CCCCCNC(=O)OC(C)(C)C)c(=O)n1-c1cccc(C(F)(F)F)c1 [Example 8, tert-butyl 5-[5-[1-(4-cyanophenyl)-1H-pyrazol-5-yl]-4-methyl-2,6-dioxo-3-(3-trifluoromethyl)-2,3-dihydropyrimidine-1(6H)-yl]pentylcarbamate] | 64 nM
9 | COc1ccc(Cn2c(=O)c(-c3ccnn3-c3ccc(C#N)cc3)c(C)n(-c3cccc(C(F)(F)F)c3)c2=O)cc1 [Example 9, 4-[5-[3-(4-methoxybenzyl)-6-methyl-2,4-dioxo-1-(3-trifluoromethylphenyl)-1,2,3,4-tetrahydropyrimidin-5-yl]-1H-pyrazol-1-yl]benzonitrile] | 2950 nM
10 | Cc1c(-c2ccnn2-c2ccc(C#N)cc2)c(=O)n(C)c(=O)n1-c1cccc(C#N)c1 [Example 10, 3-[5-[1-(4-cyanophenyl)-1H-pyrazol-5-yl]-3,6-dimethyl-2,4-dioxo-3,4-dihydropyrimidin-1(2H)-yl]benzonitrile] | 648 nM
11 | Cc1c(-c2ccnn2-c2ccc(C#N)cc2)c(=O)n(C)c(=O)n1-c1cccc(F)c1 [Example 11, 4-[5-[1-(3-fluorophenyl)-3,6-dimethyl-2,4-dioxo-1,2,3,4-tetrahydropyrimidin-5-yl]-1H-pyrazol-1-yl]benzonitrile] | 1360 nM

Target: T1, human neutrophil elastase
Assay: Inhibitory action 2 against human neutrophil elastase (Test Example 2; fluorogenic substrate MeOSuc-AAPV-AMC, buffer with 400 mM NaCl, 0.2 mg/ml BSA)
Assay type: biochemical
Conditions: 37° C., read-out: IC50 value (compound concentration required for 50% inhibition of human neutrophil elastase)
Protocol: Assay buffer (0.4 unit/ml HNE (human neutrophil elastase, available from Elastin Products Company), 200 mM HEPES [N-(2-hydroxyethyl)piperazine-N′-(2-ethanesulfonic acid)], pH 7.5, 400 mM NaCl, 0.2 mg/ml BSA (bovine serum albumin)) 100 μl, water for injection 20 μl and 1% DMSO (dimethyl sulfoxide) solution of the present compound 20 μl were mixed in a 96 well plate and the mixed solutions were pre-incubated at 37° C. for five minutes. After pre-incubation, MeOSuc-AAPV-AMC (methoxysuccinyl-alanyl-alanyl-prolyl-valyl-aminomethyl cumaride (available from Sigma Aldrich Corp.) solution as fluorogenic substrate (which was dissolved in 10% DMSO solution so as to adjust to 0.5 mM) 40 μl was added to the above-prepared mixed solution so as to initiate the reaction, and the mixture was incubated at 37° C. for five minutes. The fluorescence intensity of AMC was measured at an excitation wavelength of 380 nm and a fluorescence wavelength of 460 nm and the inhibition ratio was determined.

Row | Molecule | IC50
12 | Cc1c(-c2ccnn2-c2ccc(C#N)cc2)c(=O)n(C(C)CCN2CCOCC2)c(=O)n1-c1cccc(C(F)(F)F)c1 (centres unmarked) [Example 399] | 12.9 nM
13 | Cc1c(-c2ccnn2-c2ccc(C#N)cc2)c(=O)n(C(C)CCNC2CC(F)(F)C2)c(=O)n1-c1cccc(C(F)(F)F)c1 (centres unmarked) [Example 406] | 12.9 nM
14 | Cc1c(-c2ccnn2-c2ccc(C#N)cc2)c(=O)n(C(C)CCNc2ccncc2)c(=O)n1-c1cccc(C(F)(F)F)c1 (centres unmarked) [Example 408] | 14.7 nM
